Values quoted from earlier work in patent publication US20190216952A1, “Method for substantiating validating products for environmental safety” (priority 2018, published 2019).

Assays:
coral [1] = details: Danovaro et al 2008
coral [2] = details: Downs et al

SMILES	coral bleaching/death (coral [1])	toxicity in coral (coral [2])
CCCCC(CC)COC(=O)C=Cc1ccc(OC)cc1 (centres unmarked) [Octinoxate]	caused coral bleaching/death	–
Cc1ccc(C=C2C(=O)C3(C)CCC2C3(C)C)cc1 (centres unmarked) [4-Methylbenzylidene Camphor]	caused coral bleaching/death	–
COc1ccc(C(=O)c2ccccc2)c(O)c1 [Oxybenzone]	caused coral bleaching/death	toxicity
CCCCOC(=O)c1ccc(O)cc1 [Butylparaben]	caused coral bleaching/death	–
